By IC50 is commonly meant the concentration that gives 50% inhibition.

SMILES strings stand for the structures.

This is an account of results in patent publication US20220144823A1, “PYRAZOLOPYRIDINE DERIVATIVES AS INHIBITORS OF PASK” (Galapagos NV, priority 2019, published 2022).

Assay [1] has as its target T1, human PASK (Homo sapiens, UniProt Q96RG2).
T1 construct: purchased ThermoFisher Scientific PR7013A
The experiment in a line: ADP-Glo kinase assay. Particulars: ADPGlo PASK kinase assay, 25 μM ATP, ZIPtide 25 μM. In kind it is biochemical. The method, then:
The ADP-Glo™ kinase assay is a luminescent technology assay which measures the ADP formed from a kinase reaction. In this specific study, the kinase reactions consisted of the phosphorylation of the ZIPtide peptide substrate by human recombinant PASK. In a second step the kinase reaction is terminated and all the remaining ATP is depleted. In a final step the ADP is converted into ATP and this newly synthesized ATP is measured by using a luciferase/luciferin reaction. The generated light is measured using an Envision plate reader, wherein the luminescent signal obtained positively correlates with the kinase activity.
The test compounds are prepared as a serial dilution of 10 point dose responses with 1/5 dilution steps in 100% DMSO starting from 2 mM highest concentration, diluted 1/20 in water and 1 μL is transferred to the assay plates (PerkinElmer Inc., Cat #6007290).
1% DMSO and 10 μM staurosporine final concentrations are used respectively as negative and positive controls.
2 μL enzyme-substrate mixture is added to the assay plates.
The reaction is started by adding 2 μL diluted ATP on the assay plates immediately after addition of the enzyme-substrate mixture to the compound. Plates are centrifuged for a few seconds at 1000 rpm and gently shaken for 2 min followed by an incubation at RT for 120 min.
The reactions are stopped and the unconsumed ATP is depleted by adding 5 μL ADP-Glo Reagent (Promega, Cat #V912B) to the reaction. The plates are centrifuged for a few seconds at 1000 rpm and incubated at RT for 40 min (ATP depletion).
The ADP is converted to ATP and luciferase and luciferin is introduced to detect ATP by adding 10 μL Kinase Detection Reagent (Promega, Cat #V913B+V914B) to the reaction. The plates are centrifuged for a few seconds at 1000 rpm and incubated at RT for 30 min (ADP detection).
Luminescence is measured on an Envision plate reader (PerkinElmer Inc.).
Raw data are generated following the read-out performed on the Envision plate reader, used to calculate percentage inhibition (PIN) values and plotted to generate dose response curves and derive the average half maximal inhibitory concentrations (IC50) reported in Table VIII.
In general terms: ADP-Glo first removes unused ATP, then detects ADP through luciferase.

Assay [2] has as its system diabetic non human primates (NHPs) under a high-calorie diet (HCD). The experiment in a line: Diabetic monkey model.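 Also: male obese diabetic cynomolgus monkeys fed a high-fat, high-fructose diet, randomized into 4 groups, dosed with test compound for 8 weeks, then a 4-week washout.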
Protocol: The aim of this assay is to determine the effect of a test compound on lipid metabolism and glucose handling in diabetic non human primates (NHPs) under a high-calorie diet (HCD) consisting of high-fat and high-fructose.
Male obese diabetic cynomolgus monkeys were selected based on their body weights, glucose, insulin levels, and blood lipid parameters. The inclusion criteria were the following: age ≤22 years; fasted plasma glucose between 120 and 300 mg/dL; triglycerides >125 mg/dL, and insulin >75 mIU/mL.
The animals are maintained at 20-23° C. and 40-70% humidity on a 12 h light/dark cycle (7 AM-7 PM). Water is provided ad libitum and the animals are fed twice daily with the high-calorie diet (HCD) enriched with seasonal fruits or vegetables.
After the baseline period, animals were randomized into 4 groups according to body weight, as well as their blood glucose and lipid parameters.
The following parameters were measured once per week during the 8 weeks of treatment and also during the 4 weeks of washout: • body weight • food consumption • blood chemistry (fasted blood glucose, plasma triglycerides, plasma total cholesterol, low density lipoproteins (LDL), and high density lipoproteins (HDL))
Oral glucose tolerance was measured in fasted animals before treatment initiation (baseline), at the end of the treatment period (week 8), and after 4 weeks of washout (week 12).
Setting [3] is: week 1, treatment, metformin 25 mg/kg b.i.d., Cpd 18 30 mg/kg q.d., p.o.
The mark [4] stands for this setting: week 2, treatment, metformin 25 mg/kg b.i.d., Cpd 18 30 mg/kg q.d., p.o.
The mark [5] stands for this setting: week 3, treatment, metformin 25 mg/kg b.i.d., Cpd 18 30 mg/kg q.d., p.o.
Where [6] appears, read: week 4, treatment, metformin 25 mg/kg b.i.d., Cpd 18 30 mg/kg q.d., p.o.
The mark [7] stands for this setting: week 9, washout without treatment.
Where [8] appears, read: week 10, washout without treatment.
Setting [9] is: week 11, washout without treatment.
The mark [10] stands for this setting: week 12, washout without treatment.

T1 sequence (Q96RG2 whole entry): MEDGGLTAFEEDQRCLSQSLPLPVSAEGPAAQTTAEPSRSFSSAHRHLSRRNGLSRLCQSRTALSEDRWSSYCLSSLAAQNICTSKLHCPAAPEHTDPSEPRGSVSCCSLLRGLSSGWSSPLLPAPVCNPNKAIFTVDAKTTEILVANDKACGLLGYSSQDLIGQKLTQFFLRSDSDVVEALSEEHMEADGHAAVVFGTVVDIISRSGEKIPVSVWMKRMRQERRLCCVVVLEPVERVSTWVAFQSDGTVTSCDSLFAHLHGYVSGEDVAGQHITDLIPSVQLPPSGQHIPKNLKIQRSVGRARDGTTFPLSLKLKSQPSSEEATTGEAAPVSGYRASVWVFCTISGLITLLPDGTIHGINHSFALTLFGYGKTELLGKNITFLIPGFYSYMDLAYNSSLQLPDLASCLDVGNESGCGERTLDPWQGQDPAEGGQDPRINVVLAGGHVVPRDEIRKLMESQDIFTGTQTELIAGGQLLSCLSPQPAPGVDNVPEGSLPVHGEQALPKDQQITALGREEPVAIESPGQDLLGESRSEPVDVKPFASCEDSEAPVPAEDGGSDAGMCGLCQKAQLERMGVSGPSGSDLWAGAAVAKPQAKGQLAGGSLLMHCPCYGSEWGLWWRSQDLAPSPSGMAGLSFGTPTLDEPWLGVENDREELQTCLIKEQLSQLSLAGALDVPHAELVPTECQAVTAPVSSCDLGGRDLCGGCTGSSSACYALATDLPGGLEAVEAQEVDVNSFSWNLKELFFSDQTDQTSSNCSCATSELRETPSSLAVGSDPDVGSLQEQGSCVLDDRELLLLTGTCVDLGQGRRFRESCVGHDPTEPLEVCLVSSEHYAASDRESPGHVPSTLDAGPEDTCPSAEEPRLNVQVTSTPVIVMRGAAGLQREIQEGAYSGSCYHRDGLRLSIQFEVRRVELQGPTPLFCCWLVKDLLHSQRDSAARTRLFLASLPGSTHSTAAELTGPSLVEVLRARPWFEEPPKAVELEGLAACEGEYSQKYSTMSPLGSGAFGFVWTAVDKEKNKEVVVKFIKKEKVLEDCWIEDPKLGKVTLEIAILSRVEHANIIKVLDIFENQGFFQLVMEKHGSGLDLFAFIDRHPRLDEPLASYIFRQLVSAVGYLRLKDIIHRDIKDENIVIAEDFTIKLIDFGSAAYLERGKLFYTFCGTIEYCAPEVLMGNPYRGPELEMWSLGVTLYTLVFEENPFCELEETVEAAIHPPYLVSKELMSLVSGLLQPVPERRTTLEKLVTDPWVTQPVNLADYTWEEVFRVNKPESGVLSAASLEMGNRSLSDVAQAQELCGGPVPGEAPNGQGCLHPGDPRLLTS

Regarding `Cc1c(-c2cnn3ccc(-c4cc(C(=O)O)co4)cc23)cnn1C` [Cpd 12, 5-[3-(1,5-dimethylpyrazol-4-yl)pyrazolo[1,5-a]pyridin-5-yl]furan-3-carboxylic acid], the IC50 in assay [1] fell in the range of 0.01 to 10 nM.

As to `CCOC(=O)c1sc(-c2ccn3ncc(-c4c(C)nn(C)c4C)c3c2)nc1OC` [Cpd 87, ethyl 4-methoxy-2-[3-(1,3,5-trimethylpyrazol-4-yl)pyrazolo[1,5-a]pyridin-5-yl]thiazole-5-carboxylate], the concentration for half-maximal inhibition (IC50) in assay [1] fell in the range of 100 to 500 nM.

Regarding `Cc1nn(C(C)C)c(C)c1-c1cnn2ccc(-n3cc(C(=O)O)cn3)cc12` [Cpd 52, 1-[3-(1-isopropyl-3,5-dimethyl-pyrazol-4-yl)pyrazolo[1,5-a]pyridin-5-yl]pyrazole-4-carboxylic acid], in assay [1], the IC50 was in the range of 0.01 to 10 nM.

As for `Cc1nn(C(C)C)c(C)c1-c1cnn2ccc(-n3cc(C(=O)O)c(C(F)(F)F)n3)cc12` [Cpd 80, 1-[3-(1-isopropyl-3,5-dimethyl-pyrazol-4-yl)pyrazolo[1,5-a]pyridin-5-yl]-3-(trifluoromethyl)pyrazole-4-carboxylic acid], the IC50 in assay [1] fell in the range of 10 to 100 nM.

For `Cc1noc(C)c1-c1cnn2ccc(-c3nc(OC4COC4)c(C(=O)O)s3)cc12` [Cpd 58, 2-[3-(3,5-dimethylisoxazol-4-yl)pyrazolo[1,5-a]pyridin-5-yl]-4-(oxetan-3-yloxy) thiazole-5-carboxylic acid], in assay [1], the half-inhibitory concentration (IC50) lay within 0.01 to 10 nM.

Turning to `CN(C)C(=N)N=C(N)N` [metformin, reference compound], the “Bodyweight change (% change from baseline)” value in assay [2] (setting [3]) is listed as 1.0%; in assay [2] (setting [4]), −0.7%; in assay [2] (setting [5]), −1.3%; in assay [2] (setting [6]) it was −5.2%; in assay [2] (setting [7]), −6.5%; in assay [2] (setting [8]) it was −7.3%. In addition, the “Bodyweight change (% change from baseline)” value in assay [2] (setting [9]) is given as −6.3%; in assay [2] (setting [10]) it was −6.1%. For the same compound, the “HbA1c change (% change from baseline)” value in assay [2] (setting [3]) is −2.8%; in assay [2] (setting [4]), −12.3%; in assay [2] (setting [5]), −17.2%; in assay [2] (setting [6]), −18.9%; in assay [2] (setting [7]), −24.1%; in assay [2] (setting [8]) it was −23.5%. For the same compound, the “HbA1c change (% change from baseline)” value is given as −30.1% in assay [2] (setting [9]) and −28.6% in assay [2] (setting [10]).

Regarding `Cc1nn(C(F)F)c(C)c1-c1cnn2ccc(-c3ccc(C(=O)O)o3)cc12` [Cpd 51, 5-[3-[1-(difluoromethyl)-3,5-dimethyl-pyrazol-4-yl]pyrazolo[1,5-a]pyridin-5-yl]furan-2-carboxylic acid], the IC50 in assay [1] was 0.01 to 10 nM.

Turning to `CCOC(=O)c1sc(-c2ccn3ncc(-c4c(C)nn(C)c4C)c3c2)nc1OCC` [Cpd 88, ethyl 4-ethoxy-2-[3-(1,3,5-trimethylpyrazol-4-yl)pyrazolo[1,5-a]pyridin-5-yl]thiazole-5-carboxylate], the IC50 in assay [1] is 100 to 500 nM.

Take `Cc1noc(C)c1-c1cnn2ccc(-n3cc(C(=O)O)cn3)cc12` [Cpd 47, 1-[3-(3,5-dimethylisoxazol-4-yl)pyrazolo[1,5-a]pyridin-5-yl]pyrazole-4-carboxylic acid]: the IC50 in assay [1] lay in the range of 10 to 100 nM.

Compound `CCn1nc(C)c(-c2cnn3ccc(-n4cc(C(=O)O)c(OC)n4)cc23)c1C` [Cpd 75, 1-[3-(1-ethyl-3,5-dimethyl-pyrazol-4-yl)pyrazolo[1,5-a]pyridin-5-yl]-3-methoxy-pyrazole-4-carboxylic acid] came in with an IC50 in assay [1] of 0.01 to 10 nM.

In assay [1], `Cc1nn(C(F)F)c(C)c1-c1cnn2ccc(-c3ncc(C(=O)O)o3)cc12` [Cpd 49, 2-[3-[1-(difluoromethyl)-3,5-dimethyl-pyrazol-4-yl]pyrazolo[1,5-a]pyridin-5-yl]oxazole-5-carboxylic acid] showed a half-inhibitory concentration (IC50) of 0.01 to 10 nM.

`Cc1nn(CC(F)(F)F)c(C)c1-c1cnn2ccc(-c3cc(C(=O)O)c(C4=CCOCC4)o3)cc12` [Cpd 53, 2-(3,6-dihydro-2H-pyran-4-yl)-5-[3-[3,5-dimethyl-1-(2,2,2-trifluoroethyl)pyrazol-4-yl]pyrazolo[1,5-a]pyridin-5-yl]furan-3-carboxylic acid] returned an IC50 in assay [1] of 0.01 to 10 nM.

Consider `Cn1cc(-c2cnn3ccc(-c4cc(C(=O)O)co4)cc23)c(C(F)(F)F)n1` [Cpd 10, 5-[3-[1-methyl-3-(trifluoromethyl)pyrazol-4-yl]pyrazolo[1,5-a]pyridin-5-yl]furan-3-carboxylic acid], for which, in assay [1], the IC50 was 0.01 to 10 nM.

On to `Cc1noc(C)c1-c1cnn2ccc(-c3nc(OC(C)C)c(C(=O)O)s3)cc12` [Cpd 56, 2-[3-(3,5-dimethylisoxazol-4-yl)pyrazolo[1,5-a]pyridin-5-yl]-4-isopropoxy-thiazole-5-carboxylic acid], for which the half-maximal inhibitory concentration (IC50) in assay [1] was in the range of 0.01 to 10 nM.

`COc1nn(-c2ccn3ncc(-c4c(C)noc4C)c3c2)cc1C(=O)O` [Cpd 63, 1-[3-(3,5-dimethylisoxazol-4-yl)pyrazolo[1,5-a]pyridin-5-yl]-3-methoxy-pyrazole-4-carboxylic acid] gave an IC50 in assay [1] of 10 to 100 nM.

As to `Cc1nn(CC(F)(F)F)c(C)c1-c1cnn2ccc(-c3cc(C(=O)O)c(C4CCOCC4)o3)cc12` [Cpd 55, 5-[3-[3,5-dimethyl-1-(2,2,2-trifluoroethyl)pyrazol-4-yl]pyrazolo[1,5-a]pyridin-5-yl]-2-tetrahydropyran-4-yl-furan-3-carboxylic acid], in assay [1], the IC50 lay in the range of 0.01 to 10 nM.

On to `Cc1nn(CC(F)(F)F)c(C)c1-c1cnn2ccc(-n3cc(C(=O)O)c(C(F)(F)F)n3)cc12` [Cpd 81, 1-[3-[3,5-dimethyl-1-(2,2,2-trifluoroethyl)pyrazol-4-yl]pyrazolo[1,5-a]pyridin-5-yl]-3-(trifluoromethyl)pyrazole-4-carboxylic acid], for which the IC50 in assay [1] is 0.01 to 10 nM.

Take `Cc1nn(C(C)C)c(C)c1-c1cnn2ccc(-c3ccc(C(=O)O)o3)cc12` [Cpd 48, 5-[3-(1-isopropyl-3,5-dimethyl-pyrazol-4-yl)pyrazolo[1,5-a]pyridin-5-yl]furan-2-carboxylic acid]: in assay [1], the IC50 is 0.01 to 10 nM.

In the case of `Cc1c(-c2cnn3ccc(-c4nc(C(=O)O)co4)cc23)c(C(F)(F)F)nn1C` [Cpd 57, 2-[3-[1,5-dimethyl-3-(trifluoromethyl)pyrazol-4-yl]pyrazolo[1,5-a]pyridin-5-yl]oxazole-4-carboxylic acid], the IC50 in assay [1] lay within 0.01 to 10 nM.

Compound `Cc1noc(C)c1-c1cnn2ccc(-c3nc(OC(F)F)c(C(=O)O)s3)cc12` [Cpd 61, 4-(difluoromethoxy)-2-[3-(3,5-dimethylisoxazol-4-yl)pyrazolo[1,5-a]pyridin-5-yl]thiazole-5-carboxylic acid] gave an IC50 in assay [1] of 0.01 to 10 nM.

Turning to `COc1nn(-c2ccn3ncc(-c4c(C)nn(C(F)F)c4C)c3c2)cc1C(N)=O` [Cpd 83, 1-[3-[1-(difluoromethyl)-3,5-dimethyl-pyrazol-4-yl]pyrazolo[1,5-a]pyridin-5-yl]-3-methoxy-pyrazole-4-carboxamide], the IC50 in assay [1] was in the range of 0.01 to 10 nM.

As to `Cc1nn(C(F)F)c(C)c1-c1cnn2ccc(-c3cc(C(=O)O)c(C4=CCOCC4)o3)cc12` [Cpd 54, 5-[3-[1-(difluoromethyl)-3,5-dimethyl-pyrazol-4-yl]pyrazolo[1,5-a]pyridin-5-yl]-2-(3,6-dihydro-2H-pyran-4-yl)furan-3-carboxylic acid], the IC50 in assay [1] was in the range of 0.01 to 10 nM.

`COCCOc1nc(-c2ccn3ncc(-c4c(C)noc4C)c3c2)sc1C(=O)O` [Cpd 59, 2-[3-(3,5-dimethylisoxazol-4-yl)pyrazolo[1,5-a]pyridin-5-yl]-4-(2-methoxyethoxy) thiazole-5-carboxylic acid] returned an IC50 in assay [1] of 0.01 to 10 nM.

In turn, `Cc1nn(C)c(C)c1-c1cnn2ccc(-c3cc(C(=O)OCOC(=O)C(C)(C)C)co3)cc12` [Cpd 13, 2,2-dimethylpropanoyloxymethyl 5-[3-(1,3,5-trimethylpyrazol-4-yl)pyrazolo[1,5-a]pyridin-5-yl]furan-3-carboxylate] came in with an IC50 in assay [1] of 100 to 500 nM.

Turning to `CCOCCOc1nc(-c2ccn3ncc(-c4c(C)noc4C)c3c2)sc1C(=O)O` [Cpd 60, 2-[3-(3,5-dimethylisoxazol-4-yl)pyrazolo[1,5-a]pyridin-5-yl]-4-(2-ethoxyethoxy) thiazole-5-carboxylic acid], in assay [1], the half-inhibitory concentration (IC50) was in the range of 0.01 to 10 nM.

In assay [1], `Cc1nn(C)c(C)c1-c1cnn2ccc(-n3cc(C(=O)O)cn3)cc12` [Cpd 73, 1-[3-(1,3,5-trimethylpyrazol-4-yl)pyrazolo[1,5-a]pyridin-5-yl]pyrazole-4-carboxylic acid] displayed an IC50 of 0.01 to 10 nM.
